From ChEMBL document CHEMBL1201861, “Genomics of Drug Sensitity in Cancer screening data, Wellcome Trust Sanger Institute”

Legend:
Experiment in all cases: cells
Conditions in all cases: Homo sapiens
COLO-800 = format: functional, cell-based
Calu-6 = format: functional, cell-based
DB = format: functional, cell-based
DEL = format: functional, cell-based
EKVX = format: functional, cell-based
EM-2 = format: functional, cell-based
EW-11 = format: functional, cell-based
EW-16 = format: functional, cell-based
EW-24 = format: functional, cell-based
EW-3 = format: functional, cell-based
GAK = format: functional, cell-based
GOTO = format: functional, cell-based
GR-ST = format: functional, cell-based
HC-1 = format: functional, cell-based
HD-MY-Z = format: functional, cell-based
HT-144 = format: functional, cell-based
IA-LM = format: functional, cell-based
K562 = format: functional, cell-based
KALS-1 = format: functional, cell-based
KARPAS-299 = format: functional, cell-based
KGN = format: functional, cell-based
KINGS-1 = format: functional, cell-based
KLE = format: functional, cell-based
KNS-81-FD = format: functional, cell-based
L-363 = format: functional, cell-based
LB373-MEL-D = format: functional, cell-based
LC-2-ad = format: functional, cell-based
LOX IMVI = format: functional, cell-based
ML-2 = format: functional, cell-based
MS-1 = format: functional, cell-based
MZ1-PC = format: functional, cell-based
MZ7-mel = format: functional, cell-based
NB5 = format: functional, cell-based
NCI-H1092 = format: functional, cell-based
NCI-H1155 = format: functional, cell-based
NCI-H1355 = format: functional, cell-based
NCI-H1395 = format: functional, cell-based
NCI-H1648 = format: functional, cell-based
NCI-H1650 = format: functional, cell-based
NCI-H1838 = format: functional, cell-based
NCI-H2126 = format: functional, cell-based
NCI-H226 = format: functional, cell-based
NCI-H23 = format: functional, cell-based
NEC8 = format: functional, cell-based
RKO = format: functional, cell-based
RXF 393 = format: functional, cell-based
SBC-1 = format: functional, cell-based
SF-126 = format: functional, cell-based
SH-4 = format: functional, cell-based
SK-N-DZ = format: functional, cell-based
SK-NEP-1 = format: functional, cell-based
SK-PN-DW = format: functional, cell-based
SW 962 = format: functional, cell-based
A101D = format: functional, cell-based
TE-12 = format: functional, cell-based
TE-5 = format: functional, cell-based
TE-8 = format: functional, cell-based
TE-9 = format: functional, cell-based
TGBC1TKB = format: functional, cell-based
TK-10 = format: functional, cell-based
U-87 MG = format: functional, cell-based, U-87MG ATCC
VA-ES-BJ = format: functional, cell-based
no-10 = format: functional, cell-based
no-11 = format: functional, cell-based
CGTH-W-1 = format: functional, cell-based
COLO-668 = format: functional, cell-based

## COc1cc(Nc2c(C#N)cnc3cc(OCCCN4CCN(C)CC4)c(OC)cc23)c(Cl)cc1Cl [BOSUTINIB]
COLO-800
  IC50: […]
Calu-6
  IC50: […]
DB
  IC50: […]
DEL
  IC50: 1440 nM
EKVX
  IC50: […]
EM-2
  IC50: 439 nM
EW-11
  IC50: […]
EW-16
  IC50: 1440 nM
EW-24
  IC50: […]
EW-3
  IC50: 559 nM
GAK
  IC50: […]
GOTO
  IC50: […]
GR-ST
  IC50: […]
HC-1
  IC50: […]
HD-MY-Z
  IC50: 1640 nM
HT-144
  IC50: […]
IA-LM
  IC50: […]
K562
  IC50: […]
KALS-1
  IC50: […]
KARPAS-299
  IC50: […]
KGN
  IC50: […]
KINGS-1
  IC50: […]
KLE
  IC50: […]
KNS-81-FD
  IC50: […]
L-363
  IC50: […]
LB373-MEL-D
  IC50: […]
LC-2-ad
  IC50: […]
LOX IMVI
  IC50: 1750 nM
ML-2
  IC50: […]
MS-1
  IC50: […]
MZ1-PC
  IC50: […]
MZ7-mel
  IC50: […]
NB5
  IC50: […]
NCI-H1092
  IC50: […]
NCI-H1155
  IC50: […]
NCI-H1355
  IC50: […]
NCI-H1395
  IC50: […]
NCI-H1648
  IC50: […]
NCI-H1650
  IC50: […]
NCI-H1838
  IC50: […]
NCI-H2126
  IC50: […]
NCI-H226
  IC50: […]
NCI-H23
  IC50: […]
NEC8
  IC50: […]
RKO
  IC50: […]
RXF 393
  IC50: […]
SBC-1
  IC50: […]
SF-126
  IC50: […]
SH-4
  IC50: […]
SK-N-DZ
  IC50: […]
SK-NEP-1
  IC50: 972 nM
SK-PN-DW
  IC50: […]
SW 962
  IC50: […]
A101D
  IC50: 1940 nM
TE-12
  IC50: […]
TE-5
  IC50: […]
TE-8
  IC50: […]
TE-9
  IC50: […]
TGBC1TKB
  IC50: […]
TK-10
  IC50: […]
U-87 MG
  IC50: […]
VA-ES-BJ
  IC50: […]
no-10
  IC50: […]
no-11
  IC50: […]
CGTH-W-1
  IC50: […]
COLO-668
  IC50: […]

## Cc1nc(Nc2ncc(C(=O)Nc3c(C)cccc3Cl)s2)cc(N2CCN(CCO)CC2)n1 [DASATINIB]
COLO-800
  IC50: […]
Calu-6
  IC50: […]
DB
  IC50: […]
DEL
  IC50: […]
EKVX
  IC50: […]
EM-2
  IC50: < 5 nM
EW-11
  IC50: […]
EW-16
  IC50: 762 nM
EW-24
  IC50: 782 nM
EW-3
  IC50: […]
GAK
  IC50: […]
GOTO
  IC50: […]
GR-ST
  IC50: […]
HC-1
  IC50: […]
HD-MY-Z
  IC50: […]
HT-144
  IC50: 536 nM
IA-LM
  IC50: […]
K562
  IC50: < 5 nM
KALS-1
  IC50: 94.9 nM
KARPAS-299
  IC50: […]
KGN
  IC50: 19.4 nM
KINGS-1
  IC50: 167 nM
KLE
  IC50: 113 nM
KNS-81-FD
  IC50: […]
L-363
  IC50: […]
LB373-MEL-D
  IC50: 825 nM
LC-2-ad
  IC50: 25.9 nM
LOX IMVI
  IC50: 315 nM
ML-2
  IC50: […]
MS-1
  IC50: […]
MZ1-PC
  IC50: 31.2 nM
MZ7-mel
  IC50: 479 nM
NB5
  IC50: […]
NCI-H1092
  IC50: […]
NCI-H1155
  IC50: […]
NCI-H1355
  IC50: 110 nM
NCI-H1395
  IC50: […]
NCI-H1648
  IC50: 20.1 nM
NCI-H1650
  IC50: […]
NCI-H1838
  IC50: […]
NCI-H2126
  IC50: […]
NCI-H226
  IC50: […]
NCI-H23
  IC50: […]
NEC8
  IC50: […]
RKO
  IC50: 530 nM
RXF 393
  IC50: 23.6 nM
SBC-1
  IC50: […]
SF-126
  IC50: 354 nM
SH-4
  IC50: 184 nM
SK-N-DZ
  IC50: […]
SK-NEP-1
  IC50: […]
SK-PN-DW
  IC50: […]
SW 962
  IC50: 113 nM
A101D
  IC50: 1030 nM
TE-12
  IC50: 18.6 nM
TE-5
  IC50: […]
TE-8
  IC50: 15.8 nM
TE-9
  IC50: 875 nM
TGBC1TKB
  IC50: 61.6 nM
TK-10
  IC50: 11.7 nM
U-87 MG
  IC50: […]
VA-ES-BJ
  IC50: 39 nM
no-10
  IC50: 319 nM
no-11
  IC50: 502 nM
CGTH-W-1
  IC50: 35.5 nM
COLO-668
  IC50: […]
